From ChEMBL document CHEMBL1268926, “An o-aminoanilide analogue of 1α,25-dihydroxyvitamin D(3) functions as a strong vitamin D receptor antagonist” (J Med Chem, 2010)
Active and inactive are the calls of the source. No cut-off for these calls is given here.

Columns and labels:
Tubulin (Homo sapiens) = Tubulin (Homo sapiens) (UniProt P68371+Q9H4B7+P0DPH7+P68366+Q13509+Q71U36+P04350+Q3ZCM7+P07437+P68363+Q9BQE3+Q6PEY2+Q13885+Q9BVA1+Q9BUF5); assay: Inhibition of HDAC in human SCC25 cells assessed as hyperacetylation of tubulin at 1 uM by Western blotting; type: cell-based; details: SCC-25
[1] = molecular target: Histone deacetylase (Homo sapiens) (UniProt Q13547+O15379+Q9UBN7+Q92769+Q9UQL6+Q8WUI4+Q9BY41+Q96DB2+P56524+Q9UKV0+Q969S8); assay: Inhibition of HDAC in human SCC4 cells assessed as hyperacetylation of histone H4 at 1 uM by Western blotting; details: SCC-4
Vitamin D3 receptor = molecular target: T1, Vitamin D3 receptor (Homo sapiens, UniProt P11473); assay: Binding affinity to VDR-LBD by fluorescence polarization competition assay
T1 sequence (P11473 whole entry): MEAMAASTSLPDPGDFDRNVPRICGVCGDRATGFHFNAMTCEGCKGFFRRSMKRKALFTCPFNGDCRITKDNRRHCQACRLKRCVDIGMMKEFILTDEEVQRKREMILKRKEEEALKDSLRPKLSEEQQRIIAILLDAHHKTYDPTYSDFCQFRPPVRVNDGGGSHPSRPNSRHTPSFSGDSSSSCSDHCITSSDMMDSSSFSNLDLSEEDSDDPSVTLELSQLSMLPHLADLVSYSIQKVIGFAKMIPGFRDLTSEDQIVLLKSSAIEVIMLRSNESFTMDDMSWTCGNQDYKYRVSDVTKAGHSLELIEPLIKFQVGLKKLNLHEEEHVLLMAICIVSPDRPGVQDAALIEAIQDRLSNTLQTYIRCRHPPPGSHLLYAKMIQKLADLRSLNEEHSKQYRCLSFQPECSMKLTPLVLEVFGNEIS

[2] = molecular target: T2, Vitamin D3 receptor (Homo sapiens) (UniProt P11473); assay: Agonist activity at VDR in human SCC25 cells assessed as induction of CYP24 expression at 1 to 10 uM by RT-PCR analysis; type: functional, cell-based; details: SCC-25
T2 sequence (whole entry): T1 sequence (P11473 whole entry)

[3] = molecular target: T2, Vitamin D3 receptor (Homo sapiens); assay: Agonist activity at VDR in human SCC25 cells assessed as induction of CYP24 expression at 1 to 10 uM by semiquantitative analysis; type: functional, cell-based; details: SCC-25
[4] = molecular target: T2, Vitamin D3 receptor (Homo sapiens); details: 1uM
Description: Inhibition of VDR agonist-mediated AIB1 recruitment to CYP24 promoter in ChIP assay at 1uM

[5] = molecular target: T3, Protein deacetylase HDAC6 (Homo sapiens) (UniProt Q9UBN7); assay: Inhibition of human recombinant HDAC6 up to 1 mM by fluorescence assay
T3 sequence (whole entry): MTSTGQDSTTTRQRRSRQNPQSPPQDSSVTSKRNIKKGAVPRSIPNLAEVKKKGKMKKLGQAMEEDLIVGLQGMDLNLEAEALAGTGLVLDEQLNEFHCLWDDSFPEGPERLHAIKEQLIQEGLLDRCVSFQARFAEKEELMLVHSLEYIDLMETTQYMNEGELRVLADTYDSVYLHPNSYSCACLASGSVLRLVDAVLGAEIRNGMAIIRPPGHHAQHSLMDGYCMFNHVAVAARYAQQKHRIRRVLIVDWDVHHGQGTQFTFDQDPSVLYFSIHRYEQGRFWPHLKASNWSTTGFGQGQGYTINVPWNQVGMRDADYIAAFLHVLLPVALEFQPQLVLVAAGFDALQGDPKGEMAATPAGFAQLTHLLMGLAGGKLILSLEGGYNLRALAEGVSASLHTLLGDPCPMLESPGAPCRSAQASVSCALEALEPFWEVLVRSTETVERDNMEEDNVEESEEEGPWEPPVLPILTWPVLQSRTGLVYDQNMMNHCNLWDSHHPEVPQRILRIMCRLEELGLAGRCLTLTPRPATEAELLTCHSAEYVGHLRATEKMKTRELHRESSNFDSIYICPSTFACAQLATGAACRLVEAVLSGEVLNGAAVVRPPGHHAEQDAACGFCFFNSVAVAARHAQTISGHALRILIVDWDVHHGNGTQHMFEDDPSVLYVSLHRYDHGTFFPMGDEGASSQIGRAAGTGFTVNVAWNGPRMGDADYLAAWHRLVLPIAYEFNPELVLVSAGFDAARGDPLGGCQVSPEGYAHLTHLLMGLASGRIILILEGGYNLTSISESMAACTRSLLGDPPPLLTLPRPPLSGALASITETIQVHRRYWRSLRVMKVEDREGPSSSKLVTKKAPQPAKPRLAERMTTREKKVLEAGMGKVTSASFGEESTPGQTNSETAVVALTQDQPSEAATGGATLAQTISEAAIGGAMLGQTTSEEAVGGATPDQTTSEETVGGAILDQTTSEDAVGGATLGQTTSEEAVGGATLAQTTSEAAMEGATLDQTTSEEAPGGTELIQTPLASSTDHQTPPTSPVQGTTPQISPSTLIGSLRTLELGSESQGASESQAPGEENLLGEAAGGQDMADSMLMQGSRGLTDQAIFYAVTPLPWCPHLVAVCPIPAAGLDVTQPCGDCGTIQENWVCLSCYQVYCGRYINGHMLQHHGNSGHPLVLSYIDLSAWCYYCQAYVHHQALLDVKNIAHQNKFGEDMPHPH

inhibition (Tubulin (Homo sapiens))	inhibition [1]	IC50 (Vitamin D3 receptor) [nM]	Activity [2]	Activity [3]	inhibition [4]	inhibition [5]	Structure (SMILES)
Active	Active	248					C[C@H](CCCCC(=O)Nc1ccccc1N)[C@H]1CC[C@H]2/C(=C/C=C3C[C@@H](O)C[C@H](O)C3)CCC[C@]12C
			Active	Active			C=C1/C(=C\C=C2/CCC[C@]3(C)[C@@H]([C@H](C)/C=C/[C@@H](O)C4(C(=O)OCCCC)CC4)CC[C@@H]23)C[C@@H](O)C[C@@H]1O
inactive	inactive	107	inactive	inactive	Active	inactive	CC(/C=C/C(=O)Nc1ccccc1N)=C\[C@@H](C)[C@H]1CC[C@H]2/C(=C/C=C3CC(O)C[C@H](O)C3)CCC[C@]12C (single isomer, unassigned)
